For 28 molecules, EC50 results are on record in patent US11365199B2, “Pyrazole compounds as modulators of FSHR and uses thereof” (Merck Patent GmbH, priority 2013, dated 2022).

This assay has as its target T1, FSHR (Homo sapiens, UniProt P23945).
T1 construct: expressed in transfected cells; host or cells: CHO (Cho-FSHR-LUC-1-1-43)
T1 sequence (P23945 18-695): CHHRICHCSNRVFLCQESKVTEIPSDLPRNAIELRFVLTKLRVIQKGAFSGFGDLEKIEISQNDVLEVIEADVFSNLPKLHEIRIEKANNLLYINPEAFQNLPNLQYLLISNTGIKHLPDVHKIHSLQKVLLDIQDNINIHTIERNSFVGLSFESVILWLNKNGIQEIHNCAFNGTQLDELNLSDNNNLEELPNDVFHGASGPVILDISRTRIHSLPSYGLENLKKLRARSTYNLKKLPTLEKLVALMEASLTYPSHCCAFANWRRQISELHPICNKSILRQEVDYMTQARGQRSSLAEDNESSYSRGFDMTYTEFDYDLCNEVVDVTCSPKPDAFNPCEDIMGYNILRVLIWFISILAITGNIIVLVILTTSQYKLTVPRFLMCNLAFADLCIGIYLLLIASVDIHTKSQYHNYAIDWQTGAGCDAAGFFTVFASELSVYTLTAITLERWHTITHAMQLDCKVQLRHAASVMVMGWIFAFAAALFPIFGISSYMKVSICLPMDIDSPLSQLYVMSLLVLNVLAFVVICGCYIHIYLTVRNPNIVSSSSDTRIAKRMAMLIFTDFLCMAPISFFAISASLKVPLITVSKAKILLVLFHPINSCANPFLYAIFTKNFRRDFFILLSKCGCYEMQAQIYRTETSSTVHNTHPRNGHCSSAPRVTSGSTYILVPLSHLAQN
The assay is described as follows: EC50 of cyclic AMP production in CHO FSHR cells + EC20 FSH (Assay A). In kind it is cell-based. To be noted: CHO FSHR cells + EC20 FSH, cAMP HTRF; read-out: Assay A: EC50 of cyclic AMP production. In a few lines:
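cAMP HTRF read-out (665 nm/620 nm ratio) after 1 h at 37° C of Cho-FSHR-LUC cells treated with serially diluted test compound plus EC20 FSH ([…]) and IBMX (final 200 μM). Responses given as percent of maximal FSH-standard effect.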
(In general: Time-resolved FRET reads energy transfer from a long-lived donor to a nearby acceptor.)

`[2H]C([2H])([2H])N(C(=O)c1nn(-c2ccsc2)c2c1COc1cc(OC)c(S(=O)(=O)C(C)C)cc1-2)C1(C)COC1` [Compound 199]: the EC50 was less than 100 nM.

With `COc1cc2c(cc1-c1cnn(C)c1C)-c1c(c(C(=O)N3CCOCC3(C)C)nn1-c1ccsc1)CO2` [Compound 124, (3,3-Dimethyl-morpholin-4-yl)-[8-(1,5-dimethyl-1H-pyrazol-4-yl)-7-methoxy-1-thiophen-3-yl-1,4-dihydro-chromeno[4,3-c]pyrazol-3-yl]-methanone], the EC50 was less than 100 nM.

Regarding `COc1cc2c(cc1C=C(C)C)-c1c(c(C(=O)N3CCCC3(C)CO)nn1-c1ccsc1)CO2` (stereo not shown) [Compound 48, (2-Hydroxymethyl-2-methyl-pyrrolidin-1-yl)-[7-methoxy-8-(2-methyl-propenyl)-1-thiophen-3-yl-1,4-dihydro-chromeno[4,3-c]pyrazol-3-yl]-methanone], the 50% effective concentration (EC50) was less than 100 nM.

In the case of `COc1cc2c(cc1-c1ccn(C)c1)-c1c(c(C(=O)N[C@H]3CC[C@@H](O)C3)nn1-c1ccsc1)CO2` [Compound 173, 7-Methoxy-8-(1-methyl-1H-pyrrol-3-yl)-1-thiophen-3-yl-1,4-dihydro-chromeno[4,3-c]pyrazole-3-carboxylic acid ((1S,3R)-3-hydroxy-cyclopentyl)-amide], the EC50 was greater than 5000 nM.

In the case of `COc1cc2c(cc1-c1ccn(C)n1)-c1c(c(C(=O)N(C)CC3(C)COC3)nn1-c1ccsc1)CO2` [Compound 102, 7-Methoxy-8-(1-methyl-1H-pyrazol-3-yl)-1-thiophen-3-yl-1,4-dihydro-chromeno[4,3-c]pyrazole-3-carboxylic acid methyl-(3-methyl-oxetan-3-ylmethyl)-amide], the EC50 lay within 100 to 1000 nM.

In the case of `COc1cc2c(cc1-c1ccn(C)c1)-c1c(c(C(=O)NC3CC(O)C3)nn1-c1ccsc1)CO2` (stereo not shown) [Compound 136, 7-Methoxy-8-(1-methyl-1H-pyrrol-3-yl)-1-thiophen-3-yl-1,4-dihydro-chromeno[4,3-c]pyrazole-3-carboxylic acid (3-hydroxy-cyclobutyl)-amide], the EC50 is greater than 5000 nM.

`COc1cc2c(cc1-c1cnn(CCC#N)c1)-c1c(c(C(=O)N3CCOCC3(C)C)nn1-c1ccsc1)CO2` [Compound 190, 3-{4-[3-(3,3-Dimethyl-morpholine-4-carbonyl)-7-methoxy-1-thiophen-3-yl-1,4-dihydro-chromeno[4,3-c]pyrazol-8-yl]-pyrazol-1-yl}-propionitrile]: the EC50 is less than 100 nM.

Regarding `COc1cc2c(cc1S(=O)(=O)CC(C)C)-c1c(c(C(=O)N3CCOCC3(C)C)nn1-c1ccsc1)CO2` [Compound 127, (3,3-Dimethyl-morpholin-4-yl)-[7-methoxy-8-(2-methyl-propane-1-sulfonyl)-1-thiophen-3-yl-1,4-dihydro-chromeno[4,3-c]pyrazol-3-yl]-methanone], the EC50 is greater than 5000 nM.

Consider `[2H]C([2H])([2H])N(CCN1CCOC1=O)C(=O)c1nn(-c2ccsc2)c2c1COc1cc(OC)c(-c3cn[nH]c3)cc1-2` [Compound 85], for which the EC50 is less than 100 nM.

For the molecule `[2H]C([2H])([2H])O[C@@H]1CC[C@H](N(C(=O)c2nn(-c3ccsc3)c3c2COc2cc(OC)c(-c4ccn(C)n4)cc2-3)C([2H])([2H])[2H])C1` [Compound 177], the EC50 lay within 1000 to 5000 nM.

Turning to `COc1cc2c(cc1-c1ccn(C)n1)-c1c(c(C(=O)N(C)C3COC3)nn1-c1ccsc1)CO2` [Compound 104, 7-Methoxy-8-(1-methyl-1H-pyrazol-3-yl)-1-thiophen-3-yl-1,4-dihydro-chromeno[4,3-c]pyrazole-3-carboxylic acid methyl-oxetan-3-yl-amide], the EC50 lay within 1000 to 5000 nM.

On to `[2H]C([2H])([2H])OCC(C)(C)NC(=O)c1nn(-c2ccsc2)c2c1COc1cc(OC)c(C=C(C)C)cc1-2` [Compound 59], for which the EC50 fell in the range of 100 to 1000 nM.

As to `COc1cc2c(cc1-c1ccn(C)c1)-c1c(c(C(=O)N3CCN(C(C)=O)CC3)nn1-c1ccsc1)CO2` [Compound 155, 1-{4-[7-Methoxy-8-(1-methyl-1H-pyrrol-3-yl)-1-thiophen-3-yl-1,4-dihydro-chromeno[4,3-c]pyrazole-3-carbonyl]-piperazin-1-yl}-ethanone], the EC50 was greater than 5000 nM.

As for `COc1cc2c(cc1C=C(C)C)-c1c(c(C(=O)N(C)C(C)(C)C)nn1-c1nccs1)CO2` [Compound 89, 7-Methoxy-8-(2-methyl-propenyl)-1-thiazol-2-yl-1,4-dihydro-chromeno[4,3-c]pyrazole-3-carboxylic Acid tert-butyl-methyl-amide], the EC50 was less than 100 nM.

With `COc1cc2c(cc1S(=O)(=O)C(C)C)-c1c(c(C(=O)NC3(C)COC3)nn1-c1ccsc1)CO2` [Compound 188, 7-Methoxy-8-(propane-2-sulfonyl)-1-thiophen-3-yl-1,4-dihydro-chromeno[4,3-c]pyrazole-3-carboxylic Acid (3-methyl-oxetan-3-yl)-amide], the EC50 is greater than 5000 nM.

In the case of `COc1cc2c(cc1C=C(C)C)-c1c(c(C(=O)N(C)CCCN(C)C(C)=O)nn1-c1ccsc1)CO2` [Compound 32], the EC50 fell in the range of 100 to 1000 nM.

As to `COc1cc2c(cc1OC(C)C)-c1c(c(C(=O)NCCCN)nn1-c1ccsc1)CO2` [Compound 27, 8-Isopropoxy-7-methoxy-1-thiophen-3-yl-1,4-dihydro-chromeno[4,3-c]pyrazole-3-carboxylic acid (3-amino-propyl)-amide], the EC50 was greater than 5000 nM.

Turning to `COc1cc2c(cc1-c1cnc(C)n1C)-c1c(c(C(=O)N(C)C(C)(C)C)nn1-c1ccsc1)CO2` [Compound 92, 8-(2,3-Dimethyl-3H-imidazol-4-yl)-7-methoxy-1-thiophen-3-yl-1,4-dihydro-chromeno[4,3-c]pyrazole-3-carboxylic acid tert-butyl-methyl-amide], the EC50 was less than 100 nM.

`COc1cc2c(cc1C=C(C)C)-c1c(c(C(=O)N(C)CCN(C)C(C)=O)nn1-c1ccsc1)CO2` [Compound 34]: the EC50 is less than 100 nM.

As for `COc1cc2c(cc1-c1cscn1)-c1c(c(C(=O)N(C)C(C)(C)C)nn1-c1ccsc1)CO2` [Compound 81, 7-Methoxy-8-thiazol-4-yl-1-thiophen-3-yl-1,4-dihydro-chromeno[4,3-c]pyrazole-3-carboxylic acid tert-butyl-methyl-amide], the concentration for a half-maximal effect (EC50) is less than 100 nM.

With `COc1cc2c(cc1-c1ccn(C)c1)-c1c(c(C(=O)NCC3(O)COC3)nn1-c1ccsc1)CO2` [Compound 164, 7-Methoxy-8-(1-methyl-1H-pyrrol-3-yl)-1-thiophen-3-yl-1,4-dihydro-chromeno[4,3-c]pyrazole-3-carboxylic acid (3-hydroxy-oxetan-3-ylmethyl)-amide], the half-maximal effective concentration (EC50) fell in the range of 1000 to 5000 nM.

Regarding `[2H]C([2H])([2H])N(CCN1CCOC1=O)C(=O)c1nn(-c2ccsc2)c2c1COc1cc(OC)c(C=C(C)C)cc1-2` [Compound 56], the EC50 is less than 100 nM.

`COc1cc2c(cc1-c1ccn(C)n1)-c1c(c(C(=O)NC3CC(O)C3)nn1-c1ccsc1)CO2` (stereo not shown) [Compound 137, 7-Methoxy-8-(1-methyl-1H-pyrazol-3-yl)-1-thiophen-3-yl-1,4-dihydro-chromeno[4,3-c]pyrazole-3-carboxylic acid (3-hydroxy-cyclobutyl)-amide]: the EC50 lay in the range of 1000 to 5000 nM.

With `COc1cc2c(cc1-c1ccn(C)n1)-c1c(c(C(=O)N3CCN(C(=O)OC(C)(C)C)CC3(C)C)nn1-c1ccsc1)CO2` [Compound 156, 4-[7-Methoxy-8-(1-methyl-1H-pyrazol-3-yl)-1-thiophen-3-yl-1,4-dihydro-chromeno[4,3-c]pyrazole-3-carbonyl]-3,3-dimethyl-piperazine-1-carboxylic acid tert-butyl ester], the concentration for a half-maximal effect (EC50) was in the range of 100 to 1000 nM.

As to `[2H]C([2H])([2H])OC1CC(N(C(=O)c2nn(-c3ccsc3)c3c2COc2cc(OC)c(-c4ccn(C)c4)cc2-3)C([2H])([2H])[2H])C1` (stereo not shown) [Compound 142], the EC50 is greater than 5000 nM.

In the case of `COc1cc2c(cc1-c1ccnn1C)-c1c(c(C(=O)N(C)C(C)(C)C)nn1-c1ccsc1)CO2` [Compound 64, 7-Methoxy-8-(2-methyl-2H-pyrazol-3-yl)-1-thiophen-3-yl-1,4-dihydro-chromeno[4,3-c]pyrazole-3-carboxylic acid tert-butyl-methyl-amide], the EC50 was less than 100 nM.

Consider `COc1cc2c(cc1-c1cnn(CC(C)C)c1)-c1c(c(C(=O)N3CCOCC3(C)C)nn1-c1ccsc1)CO2` [Compound 192, (3,3-Dimethyl-morpholin-4-yl)-[8-(1-isobutyl-1H-pyrazol-4-yl)-7-methoxy-1-thiophen-3-yl-1,4-dihydro-chromeno[4,3-c]pyrazol-3-yl]-methanone], for which the EC50 is less than 100 nM.

Take `COc1cc2c(cc1-c1ccn(C)n1)-c1c(c(C(=O)N3CCCC34COC4)nn1-c1ccsc1)CO2` [Compound 174, [7-Methoxy-8-(1-methyl-1H-pyrazol-3-yl)-1-thiophen-3-yl-1,4-dihydro-chromeno[4,3-c]pyrazol-3-yl]-(2-oxa-5-aza-spiro[3.4]oct-5-yl)-methanone]: the EC50 lay in the range of 100 to 1000 nM.

Usually EC50 stands for the concentration needed to bring the measured effect to its halfway point.
